Measured values: patent US12679812B2, “18F-labeled triazole containing PSMA inhibitors” (Cornell University, priority 2016, dated 2026)
Marks after values point to notes of the source that are not given here.

How the values were obtained:
LNCaP xenograft tumor = experiment: microPET/CT imaging of LNCaP xenograft tumor-bearing mice; assay type: in vivo; conditions: for Max. LNCaP Tumor Uptake: image derived calculation of tumor uptake (microPET/CT), at time of maximum uptake; for Time p.i. of max. LNCaP tumor uptake: microPET/CT imaging at 1, 2, 4, 6 h
Protocol: Inoculation of mice with xenografts. All animal studies were approved by the Institutional Animal Care and Use Committee of Weill Cornell Medicine and were undertaken in accordance with the guidelines set forth by the USPHS Policy on Humane Care and Use of Laboratory Animals. Animals were housed under standard conditions in approved facilities with 12 h light/dark cycles. Food and water was provided ad libitum throughout the course of the studies. Male inbred athymic nu/nu mice were purchased from The Jackson Laboratory. For inoculation in mice, LNCaP cells were suspended at 4×10^7 cells/mL in a 1:1 mixture of PBS:Matrigel (BD Biosciences). Each mouse was injected in the left flank with 0.25 mL of the cell suspension. The mice were imaged when the tumors reached approximately 200-400 mm^3, while biodistributions were conducted when tumors were in the range 100-400 mm^3.
Imaging. […] Specific activity was greater than […]. The mice were imaged by pPET/CT (Inveon™; Siemens Medical Solutions, Inc.) at 1 h, 2 h, 4 h, and 6 h post-injection ([^18F]fluorinated compounds) or 1 h and 3 h post-injection ([^68Ga]Ga-PSMA-HBED-CC). Total acquisition time was thirty minutes, and a CT scan was obtained either immediately before or immediately after the acquisition for both anatomical co-registration and attenuation correction. The data were reconstructed using the commercial Inveon™ software supplied by the vendor. Tumor uptake was estimated by drawing a region of interest (ROI).

PSMA on LNCaP cells = molecular target: T1, PSMA on LNCaP cells (Homo sapiens, UniProt Q04609); experiment: Competitive binding assay against 99mTc-MIP-1427 for binding to PSMA on LNCaP cells; conditions: non-radioactive fluorine-containing ligands, 1 nM 99mTc-MIP-1427, 1 hour
T1 construct: host or cells: LNCaP
Protocol: Cell Culture. The human prostate cancer cell line, LNCaP, was obtained from the American Type Culture Collection. Cell culture supplies were from Invitrogen unless otherwise noted. LNCaP cells were maintained in RPMI-1640 medium supplemented with 10% fetal bovine serum (Hyclone), 4 mM L-glutamine, 1 mM sodium pyruvate, 10 mM N-2-hydroxyethylpiperazine-N-2-ethanesulfonic acid (HEPES), 2.5 mg/mL D-glucose, and 50 μg/mL gentamicin in a humidified incubator at 37° C./5% C02. Cells were removed from flasks for passage or for transfer to 12-well assay plates by incubating them with 0.25% trypsin/ethylenediaminetetraacetic acid (EDTA).
In vitro determination of IC50. IC50 values of the non-radioactive fluorine-containing ligands were determined by screening in a multi-concentration competitive binding assay against ^99mTc-((7S,12S,16S)-1-(1-(carboxymethyl)-1H-imidazol-2-yl)-2-((1-(carboxymethyl)-1H-imidazol-2-yl)methyl)-9,14-dioxo-2,8,13,15-tetraazaoctadecane-7,12,16,18-tetracarboxylic acid technetium tricarbonyl complex) (^99mTc-MIP-1427) for binding to PSMA on LNCaP cells, according to methods previously described. See Hillier S M, Maresca K P, Lu G, Merkin R D, Marquis J C, Zimmerman C N, Eckelman W C, Joyal J L, Babich J W. 99mTc-Labeled Small-Molecule Inhibitors of Prostate-Specific Membrane Antigen for Molecular Imaging of Prostate Cancer. J. Nucl. Med. 2013, 54, 1369-1376, incorporated herein by reference. The LNCaP cells were plated 48 hours prior to the experiment to achieve a density of approximately 5×10^5 cells/well (in triplicate) in RPMI-1640 medium supplemented with 0.25% bovine serum albumin prior to performing the assay. LNCaP cells were incubated for 1 hour with 1 nM ^99mTc-MIP-1427 in serum free RPMI-1640 medium in the presence of 1-10,000 nM test compounds. Radioactive incubation media was then removed by pipette and the cells were washed twice using 1 mL ice-cold HEPES buffer. Cells were harvested from the plates and transferred to tubes for radioactive counting using a Packard Cobra II Gamma Counter. IC50 values were determined by non-linear regression using GraphPad Prism software.

LNCaP tumor xenografts = conditions: 1 h post injection, reported; cited from earlier work
LNCaP tumor = conditions: literature value, cited from earlier work

T1 sequence (Q04609 whole entry): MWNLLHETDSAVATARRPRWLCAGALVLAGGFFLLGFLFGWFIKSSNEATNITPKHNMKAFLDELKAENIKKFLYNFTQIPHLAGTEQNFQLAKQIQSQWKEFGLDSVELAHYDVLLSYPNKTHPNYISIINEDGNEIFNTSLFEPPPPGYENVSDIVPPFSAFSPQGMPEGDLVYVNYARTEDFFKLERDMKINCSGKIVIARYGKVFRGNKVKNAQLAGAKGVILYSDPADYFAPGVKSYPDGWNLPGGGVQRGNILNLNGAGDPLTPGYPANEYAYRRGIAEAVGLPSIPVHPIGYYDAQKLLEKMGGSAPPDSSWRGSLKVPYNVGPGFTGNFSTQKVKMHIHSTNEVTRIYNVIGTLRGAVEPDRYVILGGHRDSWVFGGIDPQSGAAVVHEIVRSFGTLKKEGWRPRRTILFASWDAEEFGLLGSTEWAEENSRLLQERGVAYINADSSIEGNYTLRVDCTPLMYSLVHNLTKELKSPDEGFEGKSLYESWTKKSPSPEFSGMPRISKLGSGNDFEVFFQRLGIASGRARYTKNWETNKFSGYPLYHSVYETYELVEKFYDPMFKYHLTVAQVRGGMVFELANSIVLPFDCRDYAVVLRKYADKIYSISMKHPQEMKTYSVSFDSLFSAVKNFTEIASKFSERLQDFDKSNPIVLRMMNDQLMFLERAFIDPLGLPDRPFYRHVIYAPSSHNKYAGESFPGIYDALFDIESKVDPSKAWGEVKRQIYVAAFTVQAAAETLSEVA

SMILES | Max. LNCaP Tumor Uptake (LNCaP xenograft tumor) | Time p.i. of max. LNCaP tumor uptake (LNCaP xenograft tumor) | IC50 (PSMA on LNCaP cells) | Tumor washout (LNCaP xenograft tumor; microPET/CT imaging up to 6 h post injection) | Route of clearance / excretion (LNCaP xenograft tumor; from microPET/CT images) | SUVmax (LNCaP tumor xenografts) | Max. LNCaP Tumor Uptake (LNCaP tumor; 4 h p.i.) | Time p.i. of max. LNCaP tumor uptake (LNCaP tumor)
O=C(O)CC[C@H](NC(=O)N[C@@H](CCCCNC(=O)Nc1cccc(OCc2cn(CCF)nn2)c1)C(=O)O)C(=O)O [RPS-043, (((S)-1-Carboxy-5-(3-(3-((1-(2-fluoroethyl)-1H-1,2,3-triazol-4-yl)methoxy)phenyl)ureido)pentyl)carbamoyl)-L-glutamic acid] | 9.04 ± 1.88^c % ID/g | 2 h | 36.5 nM | – | – | – | – | –
O=C(O)CCC(NC(=O)NC(CCCCNC(=O)c1ccc(F)nc1)C(=O)O)C(=O)O (centres unmarked) [DCFPyL, 2-(3-{1-Carboxy-5-[(6-fluoropyridine-3-carbonyl)-amino]-pentyl}-ureido)-pentanedioic acid, reference compound] | 5.71 ± 0.61^c % ID/g | 1 h | – | rapid tumor washout | – | 1.1±0.1 | – | –
O=C(O)CC[C@H](NC(=O)N[C@@H](CCCCNC(=O)Nc1ccc(I)cc1)C(=O)O)C(=O)O [MIP-1095] | – | – | 0.3 nM | – | – | – | 34.3 ± 12.7^a % ID/g | 4 h

Continued, in another order:

Max. LNCaP Tumor Uptake (LNCaP xenograft tumor) | Time p.i. of max. LNCaP tumor uptake (LNCaP xenograft tumor) | IC50 (PSMA on LNCaP cells) | Tumor washout (LNCaP xenograft tumor; microPET/CT imaging up to 6 h post injection) | SMILES | Route of clearance / excretion (LNCaP xenograft tumor; from microPET/CT images) | SUVmax (LNCaP tumor xenografts) | Max. LNCaP Tumor Uptake (LNCaP tumor; 4 h p.i.) | Time p.i. of max. LNCaP tumor uptake (LNCaP tumor)
10.06 ± 1.33^c % ID/g | 2 h | 10.2 nM | – | O=C(O)CC[C@H](NC(=O)N[C@@H](CCCCNC(=O)Nc1ccccc1-c1cn(CCF)nn1)C(=O)O)C(=O)O [RPS-042, (((S)-1-Carboxy-5-(3-(2-(1-(2-fluoroethyl)-1H-1,2,3-triazol-4-yl)phenyl)ureido)pentyl)carbamoyl)-L-glutamic acid] | clearance via the hepatobiliary pathway in addition to renal clearance | – | – | –
8.87 ± 0.64^c % ID/g | 2 h | 21.3 nM | – | O=C(O)CC[C@H](NC(=O)N[C@@H](CCCCNC(=O)Nc1ccc(OCc2cn(CCF)nn2)cc1)C(=O)O)C(=O)O [RPS-038, (((S)-1-Carboxy-5-(3-(4-((1-(2-fluoroethyl)-1H-1,2,3-triazol-4-yl)methoxy)phenyl)ureido)pentyl)carbamoyl)-L-glutamic acid] | – | – | – | –
